Data as given in patent publication US12590099B2, “Inhibitors of histone deacetylase useful for the treatment or prevention of HIV infection” (Merck Sharp & Dohme LLC, priority 2018, dated 2026).

Tests used:
Format in all cases: biochemical
Recombinant human HDAC2 = molecular target: T1, Recombinant human HDAC2 (Homo sapiens, UniProt Q92769); experiment: Human HDAC enzyme inhibitor Fluor-de-Lys assay, HDAC2
T1 construct: Full length human HDAC2-FLAG was expressed in baculovirus infected Sf9 cells; FLAG (C); made in house; host or cells: Sf9 (baculovirus)
Experimental: (§1) Human HDAC Enzyme Inhibitor Fluor-De-Lys Assay
(§2) Recombinant human HDAC8 (BML-SE145-0100) and HDAC10 (BML-SE559-0050) enzymes, HDAC substrates BML-KI104 and BML-KI178, and HDAC developer solutions BML-KI105 and BML-KI176 were purchased from Enzo Life Sciences. […] HDAC inhibitor suberoylanilide hydroxamic acid (SAHA) was obtained from Indofine and trichostatin A (TSA) was obtained from Sigma-Aldrich.
(§3) Recombinant human HDAC1, HDAC2, and HDAC3/SMRT heterodimer were prepared by Merck Research Laboratories. […] The eluted protein was then passed over an anti-HDAC1 immunoaffinity column to remove any complexes containing HDAC1. […]
(§4) The histone deacetylase activities of HDAC1, HDAC2, HDAC3, HDAC6, and HDAC8 were measured in modified FLUOR DE LYS assays in 384-well format. In this assay, HDAC enzymes are initially incubated with an ε-acetyl (or -trifluoroacetyl)-L-lysine-containing substrate with a C-terminal amide having aminomethylcoumarin as the amine component. HDACs cleave the ε-acetyl group, rendering the resulting product susceptible to AMC cleavage by trypsin. The released AMC is then detected by its fluorescence.
(§5) The HDAC3/SMRT assay employed buffer B, consisting of 20 mM HEPES, pH 8.0, 1 mM MgCl2, 50 mM NaCl, 2.7 mM KCl, 0.05% BSA, 0.005% Tween 20, and 10 μM IP4. […] The HDAC8 assay employed buffer D, consisting of 20 mM HEPES, pH 8.0, 1 mM MgCl2, 100 mM NaCl, 20 mM KCl, 0.10% n-octyl-β-D-glucoside (Anatrace) and 0.05% BSA. All steps were performed at room temperature (23° C.). The assay was performed by pre-incubating serial dilutions of test compounds with the target HDAC prior to initiation with substrate. Each compound was titrated in a 10-point dose response, using a 1:3 fold dilution scheme, with 0.15 ul of solution added by ECH0555 to the plate, followed by the addition of 20 μl of the appropriate HDAC isoform diluted in appropriate assay buffer. […] Final conditions used for each assay were: 1. HDAC 1, 0.3 nM total enzyme, 20 μM substrate BML-KI104; 2. […] HDAC 3/SMRT, 0.3 nM total enzyme, 20 μM substrate BML-KI104; 4. […] The reactions were stopped and developed by addition of 30 ul of HDAC developer solution containing a saturating level of HDAC inhibitor as follows: 1.

HDAC6 = molecular target: T2, HDAC6 (Homo sapiens, UniProt Q9UBN7); experiment: Human HDAC enzyme inhibitor Fluor-de-Lys assay, HDAC6
T2 sequence (Q9UBN7 1-1215): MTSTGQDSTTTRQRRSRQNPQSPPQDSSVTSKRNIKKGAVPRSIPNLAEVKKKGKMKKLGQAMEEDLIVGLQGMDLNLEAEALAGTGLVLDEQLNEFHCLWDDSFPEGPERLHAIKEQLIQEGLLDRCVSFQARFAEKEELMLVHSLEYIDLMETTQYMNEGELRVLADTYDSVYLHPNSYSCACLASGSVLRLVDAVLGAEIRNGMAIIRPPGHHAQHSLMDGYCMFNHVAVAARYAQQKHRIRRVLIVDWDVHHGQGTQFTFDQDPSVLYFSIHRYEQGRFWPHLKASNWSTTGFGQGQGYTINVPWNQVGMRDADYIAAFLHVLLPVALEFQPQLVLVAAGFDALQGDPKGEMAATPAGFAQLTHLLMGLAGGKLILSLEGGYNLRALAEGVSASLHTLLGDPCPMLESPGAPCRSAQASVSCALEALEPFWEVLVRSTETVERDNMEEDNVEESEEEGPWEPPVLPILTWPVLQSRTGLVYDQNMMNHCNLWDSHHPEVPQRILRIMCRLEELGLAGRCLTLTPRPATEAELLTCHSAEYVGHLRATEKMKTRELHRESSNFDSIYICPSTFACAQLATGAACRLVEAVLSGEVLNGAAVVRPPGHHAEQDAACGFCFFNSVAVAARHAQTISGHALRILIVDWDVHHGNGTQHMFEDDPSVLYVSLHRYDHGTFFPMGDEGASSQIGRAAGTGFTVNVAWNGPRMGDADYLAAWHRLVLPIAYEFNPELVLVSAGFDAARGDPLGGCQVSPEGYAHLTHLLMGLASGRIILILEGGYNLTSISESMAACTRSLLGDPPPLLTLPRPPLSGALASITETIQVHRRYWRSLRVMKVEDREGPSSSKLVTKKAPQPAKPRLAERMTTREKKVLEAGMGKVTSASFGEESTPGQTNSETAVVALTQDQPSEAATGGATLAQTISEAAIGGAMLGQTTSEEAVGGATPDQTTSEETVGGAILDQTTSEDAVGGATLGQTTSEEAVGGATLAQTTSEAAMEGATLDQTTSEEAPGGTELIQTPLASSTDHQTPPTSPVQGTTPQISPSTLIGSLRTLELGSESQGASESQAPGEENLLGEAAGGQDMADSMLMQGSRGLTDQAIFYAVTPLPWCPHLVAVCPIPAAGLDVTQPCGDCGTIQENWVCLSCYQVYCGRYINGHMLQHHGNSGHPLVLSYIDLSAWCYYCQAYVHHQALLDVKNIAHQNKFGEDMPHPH

Recombinant human HDAC1 = molecular target: T3, Recombinant human HDAC1 (Homo sapiens, UniProt Q13547); experiment: Human HDAC enzyme inhibitor Fluor-de-Lys assay, HDAC1
T3 construct: FLAG (C); made in house
Experimental: as §1, §2, §3, §4, §5

T3 sequence (Q13547 whole entry): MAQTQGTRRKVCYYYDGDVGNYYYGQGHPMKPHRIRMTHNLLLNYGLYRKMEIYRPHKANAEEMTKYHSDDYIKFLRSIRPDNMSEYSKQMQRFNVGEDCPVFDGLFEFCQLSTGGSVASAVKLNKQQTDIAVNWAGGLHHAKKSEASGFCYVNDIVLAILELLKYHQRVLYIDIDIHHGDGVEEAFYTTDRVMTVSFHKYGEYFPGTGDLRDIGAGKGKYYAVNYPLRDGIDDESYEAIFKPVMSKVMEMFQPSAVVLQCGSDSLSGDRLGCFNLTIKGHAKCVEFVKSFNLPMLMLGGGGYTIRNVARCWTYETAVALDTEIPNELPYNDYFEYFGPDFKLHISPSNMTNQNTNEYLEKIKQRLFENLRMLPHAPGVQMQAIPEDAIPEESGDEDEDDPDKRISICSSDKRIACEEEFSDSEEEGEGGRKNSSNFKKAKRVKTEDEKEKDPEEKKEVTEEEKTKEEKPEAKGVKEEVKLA
T1 sequence (Q92769 whole entry): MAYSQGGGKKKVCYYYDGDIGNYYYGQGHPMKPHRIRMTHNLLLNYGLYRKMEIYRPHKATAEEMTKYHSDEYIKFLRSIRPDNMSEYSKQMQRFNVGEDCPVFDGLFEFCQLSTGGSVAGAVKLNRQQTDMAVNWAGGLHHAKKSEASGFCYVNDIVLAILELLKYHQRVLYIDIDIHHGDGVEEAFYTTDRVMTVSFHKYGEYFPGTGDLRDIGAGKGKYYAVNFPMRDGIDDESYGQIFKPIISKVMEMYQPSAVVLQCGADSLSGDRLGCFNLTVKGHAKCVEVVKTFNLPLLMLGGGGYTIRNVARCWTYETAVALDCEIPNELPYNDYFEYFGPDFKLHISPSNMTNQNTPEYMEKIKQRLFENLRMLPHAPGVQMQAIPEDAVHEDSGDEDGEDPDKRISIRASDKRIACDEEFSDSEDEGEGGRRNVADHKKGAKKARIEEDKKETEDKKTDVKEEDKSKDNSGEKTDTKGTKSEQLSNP

Row | Compound | IC50 (Recombinant human HDAC2) [µM] | IC50 (HDAC6) [µM] | IC50 (Recombinant human HDAC1) [µM]
1 | CCC(=O)CCCCC[C@H](NC(=O)[C@H]1CC12CCN(C)CC2)c1ncc(-c2ccc3ncc(Cl)cc3c2)[nH]1 [Compound 140] | 0.0045 | 0.611 | 0.00097
2 | CCC(=O)CCCCC[C@H](NC(=O)[C@H]1CC[C@]2(CC1)OC(=O)c1ncccc12)c1ncc(-c2cc3ccccc3nc2OC)[nH]1 [Compound 141] | 0.0384 | 1.49 | 0.0122
3 | CCC(=O)CCCCC[C@H](NC(=O)[C@H]1CC12CCN(C)CC2)c1ncc(-c2ccc(-c3ccc(C4CC4)nc3)cc2)o1 [Compound 143] | 0.207 | 3.66 | 0.0651
4 | CCC(=O)CCCCC[C@H](NC(=O)C1CC2(CCN(C)CC2)C1)c1ncc(-c2ccc3nn(C)cc3c2)[nH]1 [Compound 145] | 0.0126 | 5.76 | 0.00585
5 | CCC(=O)CCCCC[C@H](NC(=O)[C@H]1CC12CCN(C)CC2)c1ncc(-c2ccc3nc(C4CC4)sc3c2)[nH]1 [Compound 146] | 0.0033 | 7.73 | 0.00106
6 | CCC(=O)CCCCC[C@H](NC(=O)C1CC2(C1)CN(C)C2)c1ncc(-c2ccc3nn(C)cc3c2)[nH]1 [Compound 147] | 0.0103 | 3.66 | 0.00229
7 | CCC(=O)CCCCC[C@H](NC(=O)[C@H]1CC12CCN(C)CC2)c1ncc(-c2ccc3nc(CC)sc3c2)[nH]1 [Compound 149] | 0.0039 | 3.66 | 0.0005
8 | CCC(=O)CCCCC[C@H](NC(=O)[C@H]1CC12CCN(CC)CC2)c1ncc(-c2ccc3c(=O)n(C4CC4)ccc3c2)[nH]1 [Compound 150] | 0.0014 | 7.05 | 0.00019
9 | CCC(=O)CCCCC[C@H](NC(=O)[C@H]1CC12CCN(CC)CC2)c1ncc(-c2ccc3c(=O)n(C4CC4)ccc3c2)o1 [Compound 153] | 0.0135 | 10.4 | 0.00544
10 | CCC(=O)CCCCC[C@H](NC(=O)C1=NOC2(CCN(C)CC2)C1)c1ncc(-c2ccc3nn(C)cc3c2)[nH]1 [Compound 154] | 0.0195 | 18.1 | 0.00603
11 | CCC(=O)CCCCC[C@H](NC(=O)CN1CCC2(CC1)CC2)c1ncc(-c2ccc3nn(C)cc3c2)[nH]1 [Compound 155] | 0.0184 | 8.94 | 0.00691
12 | CCC(=O)CCCCC[C@H](NC(=O)C1CCC2(CC1)CN(C)C2)c1ncc(-c2ccc3nn(C)cc3c2)[nH]1 [Compound 156] | 0.0151 | 7.53 | 0.00503
13 | CCC(=O)CCCCC[C@H](NC(=O)C1(CC(C)C)CC2(CN(C)C2)C1)c1ncc(-c2ccc3nc(C)ccc3c2)[nH]1 [Compound 157] | 0.0119 | 8.53 | 0.00539
14 | CCC(=O)CCCCC[C@H](NC(=O)[C@H]1CC12CCN(CC)CC2)c1ncc(-c2ccc3c(cnn3C3CC3)c2)[nH]1 [Compound 159] | 0.0024 | 2.95 | 0.00044
